Patent US6500610B1, “Methods for identifying compounds for inhibiting of neoplastic lesions, and pharmaceutical compositions containing such compounds” (Cell Pathways, INC, priority 1997, dated 2002)
Like-named read-outs stand apart in the source and are kept apart here. One block for each compound: values may come before it.

Key:
[1] = tested on: HT-29 cells; experiment: Growth inhibition, SRB assay, HT-29; assay type: cell-based, human
[2] = molecular target: T1, cyclooxygenase (Type 1), COX-I (Ovis aries, UniProt P05979); experiment: COX inhibition assay, purified cyclooxygenase; conditions: for COX-I inhibition: FIG. 5
T1 sequence (P05979 25-600): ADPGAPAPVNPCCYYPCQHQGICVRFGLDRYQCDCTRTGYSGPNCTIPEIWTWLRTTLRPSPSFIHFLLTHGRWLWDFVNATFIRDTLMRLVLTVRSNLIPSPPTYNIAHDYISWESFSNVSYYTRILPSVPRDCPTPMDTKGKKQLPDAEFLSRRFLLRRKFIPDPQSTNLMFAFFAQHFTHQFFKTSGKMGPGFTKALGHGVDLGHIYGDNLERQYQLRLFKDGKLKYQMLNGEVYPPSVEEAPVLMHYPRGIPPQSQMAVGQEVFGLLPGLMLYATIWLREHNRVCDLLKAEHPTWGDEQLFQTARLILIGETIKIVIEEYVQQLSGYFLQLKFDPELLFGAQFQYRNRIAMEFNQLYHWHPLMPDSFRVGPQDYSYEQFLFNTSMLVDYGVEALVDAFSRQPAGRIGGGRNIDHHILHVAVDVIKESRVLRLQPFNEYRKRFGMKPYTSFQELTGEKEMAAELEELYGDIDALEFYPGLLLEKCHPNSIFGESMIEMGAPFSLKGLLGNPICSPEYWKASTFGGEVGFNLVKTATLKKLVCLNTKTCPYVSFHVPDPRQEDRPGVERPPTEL

[3] = molecular target: T2, cGMP binding sites of the GST-cGB-PDE5 Protein (Homo sapiens, UniProt O76074); experiment: cGMP binding assay with GST-cGB-PDE5 fusion protein; conditions: 3H-cGMP 2 μM
T2 construct: made in house; host or cells: E. coli BL21 (DE3)

[4] = tested on: cGMP PDE from human colon HT-29 cultured tumor cells; experiment: cGMP PDE inhibition assay; assay type: biochemical
[5] = molecular target: T3, Peak A (PDE5) from SW480 cells (Homo sapiens, UniProt O76074); experiment: cGMP hydrolysis inhibition, PDE peak A from SW480; assay type: biochemical
T3 construct: To isolate the novel phosphodiesterase from SW480, approximately four hundred million SW480 cells were grown to confluence; endogenous in cells; host or cells: SW480 colon cancer cells; DEAE-Trisacryl M fraction (peak A)

[6] = molecular target: T4, novel cGMP-specific PDE (Peak B) from SW480 cells (Homo sapiens, UniProt O00408); experiment: cGMP hydrolysis inhibition, novel PDE peak B (Section IA) from SW480; assay type: biochemical
T4 construct: IC50 Peak B (μM)
T4 sequence (O00408 2-941): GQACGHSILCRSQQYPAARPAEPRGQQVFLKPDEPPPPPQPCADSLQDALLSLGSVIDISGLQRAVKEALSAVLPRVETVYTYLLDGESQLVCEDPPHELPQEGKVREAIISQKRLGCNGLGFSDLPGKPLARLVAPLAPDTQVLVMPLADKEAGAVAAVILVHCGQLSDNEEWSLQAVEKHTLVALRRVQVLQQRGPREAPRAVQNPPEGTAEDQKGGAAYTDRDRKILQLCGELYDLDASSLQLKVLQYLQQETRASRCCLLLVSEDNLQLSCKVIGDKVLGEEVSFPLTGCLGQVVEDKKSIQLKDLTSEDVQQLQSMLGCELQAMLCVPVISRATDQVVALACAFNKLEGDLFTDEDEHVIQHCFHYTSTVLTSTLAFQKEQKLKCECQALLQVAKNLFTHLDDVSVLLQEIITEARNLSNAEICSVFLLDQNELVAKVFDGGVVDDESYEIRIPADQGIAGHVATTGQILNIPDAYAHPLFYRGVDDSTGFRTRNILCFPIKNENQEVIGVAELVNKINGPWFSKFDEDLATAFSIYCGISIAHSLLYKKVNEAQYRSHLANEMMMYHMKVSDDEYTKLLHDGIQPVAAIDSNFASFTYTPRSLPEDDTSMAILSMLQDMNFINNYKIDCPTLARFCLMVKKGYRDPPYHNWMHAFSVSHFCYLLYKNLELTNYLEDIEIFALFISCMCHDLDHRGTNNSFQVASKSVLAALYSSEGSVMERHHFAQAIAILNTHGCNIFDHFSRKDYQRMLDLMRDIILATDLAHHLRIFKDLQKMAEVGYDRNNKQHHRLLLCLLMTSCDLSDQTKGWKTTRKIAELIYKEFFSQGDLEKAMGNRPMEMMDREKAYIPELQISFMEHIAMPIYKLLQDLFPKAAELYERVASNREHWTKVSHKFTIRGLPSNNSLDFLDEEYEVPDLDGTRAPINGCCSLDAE

[7] = tested on: HT-29 cells; experiment: cGMP and cAMP levels in HT-29 cells by radioimmunoassay; assay type: cell-based, human; conditions: HT-29 cells treated 30 minutes
[8] = tested on: premalignant lesions in mouse mammary gland organ culture; experiment: Mammary gland organ culture model; assay type: cell-based
Text: Test compounds identified by the above methods can be tested for antineoplastic activity by their ability to inhibit the incidence of pre-neoplastic lesions in a mammary gland organ culture system. This mouse mammary gland organ culture technique has been successfully used by other investigators to study the effects of known antineoplastic agents such as certain NSAIDs, retinoids, tamoxifen, selenium, and certain natural products, and is useful for validation of the screening method of the present invention.
For example, female BALB/c mice can be treated with a combination of estradiol and progesterone daily, in order to prime the glands to be responsive to hormones in vitro. The animals are sacrificed, and thoracic mammary glands are excised aseptically and incubated for ten days in growth media supplemented with insulin, prolactin, hydrocortisone, and aldosterone. DMBA (7,12 dimethylbenz(a)anthracene) is added to medium to induce the formation of premalignant lesions. Fully developed glands are then deprived of prolactin, hydrocortisone, and aldosterone, resulting in the regression of the glands but not the pre-malignant lesions.
The test compound is dissolved in DMSO and added to the culture media for the duration of the culture period. At the end of the culture period, the glands are fixed in 10% formalin, stained with alum carmine, and mounted on glass slides. The incidence of forming mammary lesions is the ratio of the glands with mammary lesions to […]. The incidence of mammary lesions in test compound treated glands is compared with that of the untreated glands.
The extent of the area occupied by the mammary lesions can be quantitated by projecting an image of the gland onto a digitation pad. The area covered by the gland is traced on the pad and considered as 100% of the area. The space covered by each of the non-regressed structures is also outlined on the digitization pad and quantitated by the computer.
Mammary gland organ culture experiment were performed as previously described (Mehta and Moon, Cancer Research, 46:5832-5835, 1986). […]

[9] = tested on: HT-29 cells; experiment: Growth inhibition, viable cell count after trypan blue staining; assay type: cell-based, human; conditions: HT-29, 120 μM
Description: Growth inhibition (15A top) was measured by counting viable cells after trypan blue staining. Apoptosis (15B bottom) was measured by morphological determination following staining with acridine orange and ethidium bromide as described previously (Duke and Cohen, in: Current Protocols in Immunology, 3.17.1-3.17.16, New York, John Wiley and Sons, 1992). […] All data were collected from the same experiment.

[10] = tested on: HT-29 cells; experiment: Apoptosis and necrosis by morphology (acridine orange, ethidium bromide) in HT-29; assay type: cell-based, human
Text: Apoptosis occurs naturally during normal tissue turnover and during embryonic development of organs and limbs. Apoptosis also is induced by cytotoxic T-lymphocytes and natural killer cells, by ionizing radiation and by certain chemotherapeutic drugs. Inappropriate regulation of apoptosis is thought to play an important role in many pathological conditions including cancer, AIDS, or Alzheimer's disease, etc. Compounds can be screened for induction of apoptosis using cultures of tumor cells maintained under conditions as described above. Treatment of cells with test compounds involves either pre- or post-confluent cultures and treatment for two to seven days at various concentrations. Apoptotic cells are measured in both the attached and “floating” compartments of the cultures. […]
Apoptotic and necrotic cell death was determined previously (Duke and Cohen, In: Current Protocols in Immunology, 3.17.1 -3.17.16, New York, John Wiley and Sons, 1992). […]
The apoptosis inducing activity for a series of phosphodiesterase inhibitors was determined. […] Apoptosis and necrosis were determined morphologically after acridine orange and ethidium bromide labeling in accordance with the assay described, supra.

- COX % Inhibition at 100 μM [2]: <25%
SMILES: CC(=O)NC(CSC12CC(=O)OC1(C)/C(=C/c1ccc(S(C)(=O)=O)cc1)c1ccc(F)cc12)C(=O)O (racemic) [D, rac-(E)-1-(butan-1′,4′-olido)-[3′,4′:1,2]-6-fluoro-2-methyl-3-(p-methylsulfonylbenzylidene)-1S-indanyl-N-acetylcysteine]
- Growth % Inhibition at 100 μM [1]: 78%

SMILES: COc1cc(C=C2C(C)=C(CC(=O)O)c3cc(F)ccc32)cc(OC)c1OC [Compound B, (Z)-5-Fluoro-2-methyl-1-(3,4,5-trimethoxybenzylidene)-3-acetic acid]
- competition with cGMP in binding of GST-cGB-PDE5 [3]: None of the PDE5 inhibitors showed any competition with cGMP
- COX-I inhibition [2]: neither test compound B and E significantly inhibit COX-I
- cGMP PDE % Inhibition at 10 μM [4]: <25%

SMILES: CC1=C(CC(=O)O)c2cc(F)ccc2/C1=C\c1ccc(Cl)cc1 [Compound C, (Z)-5-Fluoro-2-methyl-1-(p-chlorobenzylidene)-3-acetic acid]
- Growth % Inhibition at 100 μM [1]: 80%
- cGMP PDE % Inhibition at 10 μM [4]: <25%

SMILES: COc1cc(/C=C2/C(C)=C(CC(=O)NCc3ccccc3)c3cc(F)ccc32)cc(OC)c1OC [Compound E, (Z)-5-Fluoro-2-methyl-1-(3,4,5-trimethoxybenzylidene)-3-indenylacetamide, N-benzyl]
- competitive (with cGMP) binding to PDE 5 (peak A) [5]: does competitively (with cGMP) bind to PDE 5
- competitive (with cGMP) binding to PDE peak B [6]: competitively (with cGMP) binds to PDE peak B
- competition with cGMP in binding of GST-cGB-PDE5 [3]: None of the PDE5 inhibitors showed any competition with cGMP
- COX-I inhibition [2]: neither test compound B and E significantly inhibit COX-I
- cGMP PDE % Inhibition at 10 μM ([4]; 10 µM): 75%

- COX % Inhibition at 100 μM [2]: 94%
SMILES: Clc1cccc(Nc2nnc(-c3ccccc3)c3ccccc23)c1 [MY5445, 1-(3-chloroanilino)-4-phenyphthalazine, reference compound]

SMILES: COc1ccc(C2CNC(=O)C2)cc1OC1CCCC1 (stereo not shown) [Rolipram]
- levels of cAMP [7]: increased cAMP

SMILES: CCCc1nn(C)c2c(=O)[nH]c(-c3cc(S(=O)(=O)N4CCN(C)CC4)ccc3OCC)nc12 [Sildenafil, reference compound]
- inhibition of activity of peak A [5]: inhibited activity of peak A

SMILES: CSc1ccc(/C=C2/C(C)=C(CC(=O)O)c3cc(F)ccc32)cc1 [Sulindac sulfide]
- inhibition of formation of premalignant lesions [8]: inactive
- competition with cGMP in binding of GST-cGB-PDE5 [3]: None of the PDE5 inhibitors showed any competition with cGMP
- increase of levels of cGMP [7]: greater than 50%
- levels of cAMP [7]: unaffected
- growth inhibition, viable cell count time course [9]: capable of inhibiting tumor cell growth
- cGMP PDE % Inhibition at 10 μM [4]: 97%
- apoptosis, time course ([10]; HT-29, 120 μM): accompanied by an increase in apoptosis
- apoptotic and necrotic cell death ([10]; HT-29, treated six days): capable of causing apoptotic cell death without inducing necrosis

SMILES: CCCOc1ccccc1-c1nc2nn[nH]c2c(=O)[nH]1 [Zaprinast]
- competition with cGMP in binding of GST-cGB-PDE5 [3]: None of the PDE5 inhibitors showed any competition with cGMP

SMILES: CC1=C(CC(=O)O)c2cc(F)ccc2/C1=C\c1ccc([S+](C)[O-])cc1 (stereo not shown) [sulindac]
- inhibition of formation of premalignant lesions [8]: effectively inhibit the formation of premalignant lesions
